Measured values: patent publication US20100152152A1, “Therapeutic Use of Nefopam” (priority 2005, published 2010)
Where a name gives a salt, the structure may show the parent alone. Marks after values point to notes of the source that are not given here.

What was measured:
Mice = test: Marble Burying Test (anxiolytic/tranquillizing activity); assay type: in vivo; conditions: 30 minutes before the test, 30 minute test
Protocol: Nefopam and (+)-nefopam were evaluated in the Marble Burying Test, a model which detects anxiolytic/tranquillizing activity. This is a general model for affective disorders.
The method follows that described by Broekkamp et al. (1986 Eur. J. Pharmacol., 126, 223-229. Mice exposed to novel objects (marbles) will bury them in the sawdust floor covering. Anxiolytics decrease the number of marbles buried at non-sedative doses.
Mice are individually placed in transparent plastic cages (33×21×18 cm) with 5 cm of sawdust on the floor and 25 marbles grouped in the centre of each cage. Each test cage is covered with an inverted plastic covering. Each test cage, together with the marbles, is impregnated with mouse odor beforehand, by leaving 10 mice in the cage for 15 minutes. These mice then play no further role in the experiment. The number of marbles covered by sawdust (⅔ or more) is counted at the end of a 30 minute test.
All compounds were administered i.p. 30 minutes before the test, and compared with a vehicle control group. Clobazam (8 mg/kg i.p.), administered under the same experimental conditions, was used as reference substance.

[1] = conventional release preparations; cited from earlier work
[2] = test system: dopamine, norepinephrine and serotonin uptake; conditions: in vitro and in vivo; Fasmer et al., 1987; Rosland and Hole, 1990; Mather at al., 2001; cited from earlier work

| Compound | Number of marbles buried (% change from ctrl) (Mice; 10 mg/kg ip) | Number of marbles buried (% change from ctrl) (Mice; 20 mg/kg ip) | Number of marbles buried (% change from ctrl) (Mice; 40 mg/kg ip) | elimination half-life [1] | order of potency (analgesic and dopamine, norepinephrine and serotonin uptake inhibitory properties) [2] | Number of marbles buried (% change from ctrl) (Mice; 32 mg/kg ip) |
| --- | --- | --- | --- | --- | --- | --- |
| CN1CCOC(c2ccccc2)c2ccccc2C1 (racemic) [Nefopam, 5-methyl-1-phenyl-3,4,5,6-tetrahydro-1H-2,5-benzoxazocine hydrochloride] | −66* % change from ctrl | −98* % change from ctrl | −100* % change from ctrl | four |  |  |
| CN1CCO[C@@H](c2ccccc2)c2ccccc2C1 [(+)-nefopam] | −56* % change from ctrl | −99* % change from ctrl | −100* % change from ctrl |  | (+)-nefopam>(±)-nefopam>(−)-nefopam |  |
| CN1C(=O)CC(=O)N(c2ccccc2)c2cc(Cl)ccc21 [Clobazam] |  |  |  |  |  | −75* % change from ctrl |
